One data set deals with P. falciparum 3D7 strain. Nature of the data set: Plasmodium falciparum growth inhibition assay (diaphorase-coupled LDH assay, 72 hours). Format: cell-based. To be noted: for Growth inhibition of parasite cells (result in words): P. falciparum 3D7, LDH assay; for IC50: Plasmodium falciparum, read-out: IC50 growth of P. falciparum 3D7 strain in culture (ABS). The procedure:
Human RBCs were received from Japanese Red Cross Society. The experiments were performed under the guidelines of the ethical committee in The University of Tokyo (permission no. 10050) and Nagasaki University (permission no. 19). Parasite culture was synchronized with 5% (w/v) D-sorbitol as previously described. Ring stage parasites (100 μL/well) were placed in a 96-well plate at 0.3% parasitemia. […] As a control, wells containing culture medium and RBCs alone were prepared. […] The absorbance of each well was measured at 655 nm using SpectraMax Paradigm® Multi-Mode microplate reader (Molecular Devices, San Jose, CA, USA).

Another data set deals with recombinant PfMQO (Plasmodium falciparum, UniProt C6KT09). In words: biochemical. To be noted: for inhibition at 10 µM: read-out: Inhibition (%) against recombinant PfMQO; for IC50: serial dilution 10 to 0.0003 μM, quadruplicate, ± standard deviation.
Chain of recombinant PfMQO (C6KT09 entry or part of it): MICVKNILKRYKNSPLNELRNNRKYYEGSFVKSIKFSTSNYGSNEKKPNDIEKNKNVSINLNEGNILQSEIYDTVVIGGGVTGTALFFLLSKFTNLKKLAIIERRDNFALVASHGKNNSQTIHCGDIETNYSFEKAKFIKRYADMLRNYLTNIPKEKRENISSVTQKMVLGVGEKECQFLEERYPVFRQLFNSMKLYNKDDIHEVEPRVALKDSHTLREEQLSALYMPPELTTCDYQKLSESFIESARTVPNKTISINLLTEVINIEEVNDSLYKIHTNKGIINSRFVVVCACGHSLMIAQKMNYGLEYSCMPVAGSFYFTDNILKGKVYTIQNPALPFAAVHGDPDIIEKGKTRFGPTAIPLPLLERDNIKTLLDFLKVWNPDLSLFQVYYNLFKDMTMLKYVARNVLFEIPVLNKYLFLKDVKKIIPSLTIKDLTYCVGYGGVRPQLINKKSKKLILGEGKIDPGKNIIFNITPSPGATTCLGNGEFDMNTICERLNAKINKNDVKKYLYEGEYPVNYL
Data set [1] has as its system stage IV gametocyte cells. Also noted: method as in PMID 28674055. To be noted: cited from earlier work.
The next data set relates to HepG2. Also noted: method as in earlier work. To be noted: ref https://www.mmv.org/mmv-open/pathogen-box/about-pathogen-box#composition; cited from earlier work.
For a further data set, the system named is ABS parasites. Also noted: method as in PMID 28674055. To be noted: read-out: IC50 against the ABS parasites, previous study; cited from earlier work.
For a further data set, the system named is Candida albicans. To be noted: recently reported; cited from earlier work.
Another data set deals with Cryptococcus neoformans. To be noted: recently reported; cited from earlier work.
Setting [2] is: read-out: IC50 against recombinant PfMQO.
The mark [3] stands for this setting: 10 μM compound, average of 4 independent experiments.
The mark [4] stands for this setting: 3D7, LDH assay, 72 hours incubation, average of three independent experiments ± SD.

The structures appear in SMILES notation. Several values for one entry are separate records, joined by “and”; a condition that tells them apart may be missing. Equal values may be shown once. Read-outs that look alike come from different tables or passages of the source.

The term inhibition denotes the change of the read-out against control, counted positive when it falls. As usually defined, the IC50 is the concentration that inhibits the measured activity by half. Regarding `Cc1cc(C)cc(COc2ccc3c(C)c(CCC(=O)O)c(=O)oc3c2C)c1` [MMV676476], the “Growth inhibition of parasite cells (result in words)” value (from here on “Growth inhibition of parasite cells”) in the data set with P. falciparum 3D7 strain is listed as “failed to inhibit the growth”. Moreover, on recombinant PfMQO, the inhibition at 10 µM was found to be 63.2%. The 50% inhibitory concentration (IC50) on recombinant PfMQO (setting [2]) was < 5 µM and 3.57 µM.
Consider `O=C(Nc1nnc(S)s1)c1cc(Br)ccc1Cl` [MMV676492], for which the “Growth inhibition of parasite cells” value with P. falciparum 3D7 strain was “failed to inhibit the growth”. The inhibition at 10 µM on recombinant PfMQO (setting [3]) was determined as 98.5%. The IC50 on recombinant PfMQO (setting [2]) is < 5 µM and 0.343 µM.
As to `O=C(NCCc1c[nH]c2ccccc12)c1cc2ccccc2oc1=O` [MMV676539], in the data set with P. falciparum 3D7 strain, the “Growth inhibition of parasite cells” value is reported as “failed to inhibit the growth”. For the same compound, the inhibition at 10 µM at recombinant PfMQO stood at 65.6%. In addition, the IC50 on recombinant PfMQO (setting [2]) was < 5 µM and 4.06 µM.
With `N=C(N)Nc1ccc(-c2ccc(-c3ccc(NC(=N)N)cc3Cl)o2)c(Cl)c1` [MMV688179], the “Activity against the stage IV gametocyte cells” value in data set [1] is listed as “active”. For the same compound, the 50% inhibitory concentration (IC50) with P. falciparum 3D7 strain (setting [4]) is 0.46 µM; on recombinant PfMQO (setting [2]) it was < 5 µM and 3.96 µM; with ABS parasites, 0.59 µM. Further, the inhibition at 10 µM at recombinant PfMQO (setting [3]) came out at 76%. Moreover, the “HepG2 cytotoxicity CC20” value with HepG2 is recorded as 6.8 µM.
Turning to `N=C(N)Nc1ccc(-c2ccc(-c3ccc(NC(=N)N)c(Cl)c3)o2)cc1Cl` [MMV688271], the “Antifungal effect against Candida albicans” value with Candida albicans is “antifungal effect”. Besides, the “Antifungal effect against Cryptococcus neoformans” value in the data set on Cryptococcus neoformans is on record as “antifungal effect”. The IC50 in the data set with P. falciparum 3D7 strain (setting [4]) is 1.03 µM; on recombinant PfMQO (setting [2]) it was < 5 µM and 1.15 µM; in the data set with ABS parasites, 1.21 µM. For the same compound, the inhibition at 10 µM at recombinant PfMQO (setting [3]) amounted to 80.5%. Further, the “HepG2 cytotoxicity CC20” value in the data set with HepG2 is reported as 13.5 µM.
As to `COc1ccc(C2=NN(C3CCCCCC3)C(=O)C3CC=CCC23)cc1OCCCCOc1ccc(-c2nn[nH]n2)cc1` (stereo not drawn) [MMV690027], the half-inhibitory concentration (IC50) in the data set on P. falciparum 3D7 strain (3D7, 72 h) stood at 16.2 µM. Further, the inhibition at 10 µM on recombinant PfMQO was 98.2%.
For the compound `COc1ccc(C2=NN(C3CCCCCC3)C(=O)C2(C)C)cc1OCCCCOc1ccc(-c2nnn[nH]2)cc1` [MMV690028], the half-inhibitory concentration (IC50) in the data set with P. falciparum 3D7 strain (setting [4]) is 6.05 µM; at recombinant PfMQO (IC50 against recombinant PfMQO), < 5 µM and 1.1 µM. Also, the inhibition at 10 µM at recombinant PfMQO was 86.7%.

Source of the values: paper PMC6627850, “Identification of Plasmodium falciparum Mitochondrial Malate: Quinone Oxidoreductase Inhibitors from the Pathogen Box” (Genes, 2019).
